Reference: patent US20250057828A1, “COMBINATION OF AN A2-ADRENOCEPTOR SUBTYPE C (ALPHA-2C) ANTAGONIST WITH A NOREPINEPHRINE REUPTAKE INHIBITOR FOR THE TREATMENT OF SLEEP APNEA” (priority 2021, published 2025)

Tested on: pig model of obstructive sleep apnea (OSA)
Experiment: pig model of obstructive sleep apnea (OSA): collapsibility of the upper respiratory tract under negative pressure
Format: in vivo, German Landrace pigs
Description: The therapeutic potential of the combination of an α2-Adrenoceptor subtype C (alpha-2C) antagonists with a muscarinic receptor antagonist according to the present invention in sleep apnea can be assessed preclinically in a pig model of obstructive sleep apnea (OSA).
Using negative pressure, it is possible to induce collapse and thus obstruction of the upper respiratory tract in anaesthetized, spontaneously breathing pigs (Wirth K. J. et al., Sleep 36(5) (2013) pp. 699-708).
German Landrace pigs are used for the model. The pigs are anaesthetized and tracheotomized. Two tracheal cannulas are inserted into the trachea, one into the rostral part and the other into the caudal part of the trachea. Using a connection piece, the rostral cannula is connected to a tube to the negative pressure device and to the distal tracheal cannula. The distal tracheal cannula is additionally connected to a tube with an open end to atmosphere via a connection piece that served for free tracheal breathing, circumventing the upper airway. By appropriate opening and clamping of those tubes breathing can be switched from nasal breathing to breathing through the caudal tracheal cannula, circumventing the upper airway, and the (isolated) upper airway can be connected to the negative pressure device, causing airflow in the inspiratory direction.
At certain points in time, the collapsibility of the upper respiratory tract is tested by having the pig breathe via the caudal cannula and applying negative pressures of −50, −100 and −150 cm water head (cm H2O) to the upper respiratory tract. This causes the upper respiratory tract to collapse, which manifests itself in an interruption of the airflow and a pressure drop in the tube system. This test is conducted prior to the administration of the test substance and at certain intervals after the administration of the test substance. An appropriately effective test substance can prevent this collapse of the respiratory tract in the inspiratory phase.

[1] = 0.01 mg/kg intraduodenal, 0 min
[2] = 0.01 mg/kg intraduodenal, 30 min
[3] = 0.01 mg/kg intraduodenal, 60 min
[4] = 0.01 mg/kg intraduodenal, 90 min
[5] = 0.01 mg/kg intraduodenal, 120 min
[6] = 0.01 mg/kg intraduodenal, 150 min
[7] = 0.01 mg/kg intraduodenal, 180 min
[8] = 0.01 mg/kg intraduodenal, 240 min
[9] = 0.01 mg/kg intraduodenal, 270 min
[10] = 0.01 mg/kg intraduodenal, 300 min
[11] = R-oxybutynin intravenous bolus 1 mg/kg + infusion 0.275 mg/kg/h for four hours, 0 min
[12] = R-oxybutynin intravenous bolus 1 mg/kg + infusion 0.275 mg/kg/h for four hours, 10 min
[13] = R-oxybutynin intravenous bolus 1 mg/kg + infusion 0.275 mg/kg/h for four hours, 30 min
[14] = R-oxybutynin intravenous bolus 1 mg/kg + infusion 0.275 mg/kg/h for four hours, 60 min
[15] = R-oxybutynin intravenous bolus 1 mg/kg + infusion 0.275 mg/kg/h for four hours, 120 min
[16] = R-oxybutynin intravenous bolus 1 mg/kg + infusion 0.275 mg/kg/h for four hours, 180 min
[17] = R-oxybutynin intravenous bolus 1 mg/kg + infusion 0.275 mg/kg/h for four hours, 240 min
[18] = intravenous bolus 1 mg/kg followed by infusion of 0,275 mg/kg/h for four hours
[19] = intravenous bolus 1 mg/kg + infusion 0.275 mg/kg/h for four hours, 0 min
[20] = intravenous bolus 1 mg/kg + infusion 0.275 mg/kg/h for four hours, 10 min
[21] = intravenous bolus 1 mg/kg + infusion 0.275 mg/kg/h for four hours, 30 min
[22] = intravenous bolus 1 mg/kg + infusion 0.275 mg/kg/h for four hours, 60 min
[23] = intravenous bolus 1 mg/kg + infusion 0.275 mg/kg/h for four hours, 120 min
[24] = intravenous bolus 1 mg/kg + infusion 0.275 mg/kg/h for four hours, 180 min
[25] = intravenous bolus 1 mg/kg + infusion 0.275 mg/kg/h for four hours, 240 min

## C[C@@H]1CCCN(C2CCN(c3ncc(C(=O)NCc4ncc(F)cc4F)s3)CC2)C1 [N-[(3,5-difluoropyridin-2-yl)methyl]-2-[(3R)-3-methyl[1,4′-bipiperidin]-1′-yl]-1,3-thiazole-5-carboxamide]
0.01 mg/kg intraduodenal
  inhibited upper airway collapsibility at all negative pressures of −50, −100 and −150 cm head (cm H2O) in all pigs: at no time point
0.01 mg/kg intraduodenal, time point 120 min
  upper airway collapsibility at the negative pressures of −50 and −100 cm head (cm H2O): inhibited
0.01 mg/kg intraduodenal, time point 150 min
  upper airway collapsibility at the negative pressure of −50 cm head (cm H2O): inhibited
[1]
  Percent pigs without collaps −50 cm H2O, %: 0%
  Percent pigs without collaps −100 cm H2O, %: 0%
  Percent pigs without collaps −150 cm H2O, %: 0%
[2]
  Percent pigs without collaps −50 cm H2O, %: 0%
  Percent pigs without collaps −100 cm H2O, %: 0%
  Percent pigs without collaps −150 cm H2O, %: 0%
[3]
  Percent pigs without collaps −50 cm H2O, %: 25%
  Percent pigs without collaps −100 cm H2O, %: 0%
  Percent pigs without collaps −150 cm H2O, %: 0%
[4]
  Percent pigs without collaps −50 cm H2O, %: 75%
  Percent pigs without collaps −100 cm H2O, %: 75%
  Percent pigs without collaps −150 cm H2O, %: 0%
[5]
  Percent pigs without collaps −50 cm H2O, %: 100%
  Percent pigs without collaps −100 cm H2O, %: 100%
  Percent pigs without collaps −150 cm H2O, %: 50%
[6]
  Percent pigs without collaps −50 cm H2O, %: 100%
  Percent pigs without collaps −100 cm H2O, %: 75%
  Percent pigs without collaps −150 cm H2O, %: 25%
[7]
  Percent pigs without collaps −50 cm H2O, %: 75%
  Percent pigs without collaps −100 cm H2O, %: 50%
  Percent pigs without collaps −150 cm H2O, %: 0%
[8]
  Percent pigs without collaps −50 cm H2O, %: 50%
  Percent pigs without collaps −100 cm H2O, %: 25%
  Percent pigs without collaps −150 cm H2O, %: 0%
[9]
  Percent pigs without collaps −50 cm H2O, %: 25%
  Percent pigs without collaps −100 cm H2O, %: 25%
  Percent pigs without collaps −150 cm H2O, %: 0%
[10]
  Percent pigs without collaps −50 cm H2O, %: 25%
  Percent pigs without collaps −100 cm H2O, %: 0%
  Percent pigs without collaps −150 cm H2O, %: 0%

## CCN(CC)CC#CCOC(=O)[C@](O)(c1ccccc1)C1CCCCC1 [R-oxybutynin, R-Oxybutynin]
R-Oxybutynin intravenous bolus 1 mg/kg + infusion 0,275 mg/kg/h, time point 60 min
  upper airway collapsibility at the negative pressure of −50 cm head (cm H2O): inhibited
[11]
  Percent pigs without collaps −50 cm H2O, %: 0%
  Percent pigs without collaps −100 cm H2O, %: 0%
  Percent pigs without collaps −150 cm H2O, %: 0%
[12]
  Percent pigs without collaps −50 cm H2O, %: 0%
  Percent pigs without collaps −100 cm H2O, %: 0%
  Percent pigs without collaps −150 cm H2O, %: 0%
[13]
  Percent pigs without collaps −50 cm H2O, %: 0%
  Percent pigs without collaps −100 cm H2O, %: 0%
  Percent pigs without collaps −150 cm H2O, %: 0%
[14]
  Percent pigs without collaps −50 cm H2O, %: 100%
  Percent pigs without collaps −100 cm H2O, %: 50%
  Percent pigs without collaps −150 cm H2O, %: 0%
[15]
  Percent pigs without collaps −50 cm H2O, %: 0%
  Percent pigs without collaps −100 cm H2O, %: 0%
  Percent pigs without collaps −150 cm H2O, %: 0%
[16]
  Percent pigs without collaps −50 cm H2O, %: 0%
  Percent pigs without collaps −100 cm H2O, %: 0%
  Percent pigs without collaps −150 cm H2O, %: 0%
[17]
  Percent pigs without collaps −50 cm H2O, %: 0%
  Percent pigs without collaps −100 cm H2O, %: 0%
  Percent pigs without collaps −150 cm H2O, %: 0%
[18]
  inhibited upper airway collapsibility at all negative pressures of −50, −100 and −150 cm head (cm H2O) in all pigs: at no time

## CCN(CC)CC#CCOC(=O)C(O)(c1ccccc1)C1CCCCC1 (stereo not drawn) [oxybutynin, Oxybutynin]
[19]
  Percent pigs without collaps −50 cm H2O, %: 0%
  Percent pigs without collaps −100 cm H2O, %: 0%
  Percent pigs without collaps −150 cm H2O, %: 0%
[20]
  Percent pigs without collaps −50 cm H2O, %: 0%
  Percent pigs without collaps −100 cm H2O, %: 0%
  Percent pigs without collaps −150 cm H2O, %: 0%
[21]
  Percent pigs without collaps −50 cm H2O, %: 0%
  Percent pigs without collaps −100 cm H2O, %: 0%
  Percent pigs without collaps −150 cm H2O, %: 0%
[22]
  Percent pigs without collaps −50 cm H2O, %: 0%
  Percent pigs without collaps −100 cm H2O, %: 0%
  Percent pigs without collaps −150 cm H2O, %: 0%
[23]
  Percent pigs without collaps −50 cm H2O, %: 0%
  Percent pigs without collaps −100 cm H2O, %: 0%
  Percent pigs without collaps −150 cm H2O, %: 0%
[24]
  Percent pigs without collaps −50 cm H2O, %: 0%
  Percent pigs without collaps −100 cm H2O, %: 0%
  Percent pigs without collaps −150 cm H2O, %: 0%
[25]
  Percent pigs without collaps −50 cm H2O, %: 0%
  Percent pigs without collaps −100 cm H2O, %: 0%
  Percent pigs without collaps −150 cm H2O, %: 0%
[18]
  inhibited upper airway collapsibility at all negative pressures of −50, −100 and −150 cm head (cm H2O) in all pigs: at no time
